Experimental data as given in PubChem BioAssay (NCI).
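Five concentrations, 48 hours, 96-well plates. The concentration for 50% growth inhibition is given as GI50. TGI: total growth inhibition.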

How the values were obtained:
Experiment in all cases: inhibition of tumour cell growth, NCI panel, 48 h
CCRF-CEM leukemia = tested on: CCRF-CEM leukemia
HL-60(TB) leukemia = tested on: HL-60(TB) leukemia
MDA-MB-231 breast = tested on: MDA-MB-231 breast
NCI-H460 lung = tested on: NCI-H460 lung
OVCAR-8 ovarian = tested on: OVCAR-8 ovarian
SR leukemia = tested on: SR leukemia
UACC-62 melanoma = tested on: UACC-62 melanoma
UO-31 renal = tested on: UO-31 renal

Structure (SMILES) | GI50 (CCRF-CEM leukemia) [nM] | TGI (CCRF-CEM leukemia) [µM] | GI50 (HL-60(TB) leukemia) [nM] | TGI (HL-60(TB) leukemia) [µM] | GI50 (MDA-MB-231 breast) [nM] | TGI (MDA-MB-231 breast) [µM] | GI50 (NCI-H460 lung) [nM] | TGI (NCI-H460 lung) [µM] | GI50 (OVCAR-8 ovarian) [nM] | TGI (OVCAR-8 ovarian) [µM] | GI50 (SR leukemia) [nM] | TGI (SR leukemia) [µM] | GI50 (UACC-62 melanoma) [µM] | TGI (UACC-62 melanoma) [µM] | GI50 (UO-31 renal) [nM] | TGI (UO-31 renal) [µM]
COc1ccc(-n2sc(=O)n(Cc3ccc(COC(=O)C(C)c4ccc(CC(C)C)cc4)cc3)c2=O)cc1 (stereo not given) | 567 | 3.74 | 1230 | 4.89 | 1860 | 7.11 | 5410 | 12.5 | 2810 | 21.5 | 1460 | 50 | 4.03 | 10.5 | 819 | 1.6
CCN1C(=O)N(CC)C2C1NN=c1s/c(=C\c3ccccc3)c(=O)n12 (stereo not given) | 232 | > 100 | 198 | 0.64 | 416 | > 100 | 210 | > 100 | 426 | > 100 | 53.1 | > 49.2 | 0.0596 | > 100 | 490 | > 100
CSc1ccc(C2=NN(C(=O)c3ccc(N)cc3)C(c3ccc(F)cc3)C2)cc1 (stereo not given) | 314 | 1.72 | 10500 | 36.1 | 12600 | 30.6 | 7830 | 35.2 | 16100 | 32.5 | 1520 | 4.31 | 10.1 | 22.5 | 10600 | 24
CS[C@@]1(C(=O)Nc2ccc3[nH]nc(-c4ccc(OC(C)C)nc4)c3c2)CCN(CC(=O)N2CC=C(c3ccc(-c4ncn(C)n4)cc3)CC2)C1 | 12500 | > 100 | 55.1 | > 100 | 380 | > 100 | > 100000 | > 100 | 9310 | > 100 | 4350 | 63.6 |  |  | 1010 | > 100
N#Cc1c(Oc2ccc(F)c(NC(=O)Cc3cccc(C(F)(F)F)c3)c2)ccc2nc(NC(=O)C3CC3)sc12 | 622 | > 100 | 480 | > 100 | 422 | 6.26 | 378 | > 100 | 731 | > 100 | 672 | > 100 | 0.0262 |  | 553 | > 24.2
CON | > 100000 | > 100 | > 100000 | > 100 | > 100000 | > 100 | > 100000 | > 100 | > 100000 | > 100 | > 100000 | > 100 | > 100 | > 100 | > 100000 | > 100
COc1ccc(-c2cncn2-c2cc(OC)c(OC)c(OC)c2)cc1F | < 29.6 | > 100 | 10.3 | < 0.0288 | 103 | > 100 | < 10 | > 100 | < 48.8 | > 100 | < 10 |  | < 0.0117 | > 100 | 71.7 | 64.8
OC(c1ccccc1)c1c(-c2ccccc2)oc(-c2ccccc2)c1C(O)c1ccccc1 (stereo not given) |  | 17.1 |  | 6.13 |  |  |  | 28.8 |  |  |  | 62.9 |  | 25.6 |  | 25
CN(C)CCOc1nc2ccccc2c2c1-c1ccc(Cl)cc1C2=O | 363 | 2.46 | 933 | 3.37 | 1100 | 3 | 365 | 1.3 | 386 | 2.22 | 305 | 1.03 | 1.38 | 2.93 | 222 | 1.27
Cc1sc(/N=C2/NC(=O)CS2)nc1-c1nc(/N=C2/NC(=O)CS2)sc1C |  |  | > 50000 | > 50 | > 50000 | > 50 | 23400 | > 50 | > 50000 | > 50 | 24900 | > 50 | 15.9 | > 50 | > 50000 | > 50
CCN(CC)c1ccc2nc3c4ccccc4c(=NC(=O)c4ccccc4-c4c5ccc(N(CC)CC)cc5[o+]c5cc(N(CC)CC)ccc45)cc-3oc2c1 | 2100 | 13.4 | 2960 | > 100 | 1990 | 8.91 | 2290 | 10.1 | 2230 | 12.2 | 2740 | 20.5 | 5.73 | 17.9 | 1490 | 15
